Measurements taken from patent US20220202739A1, “ENDOCANNABINOID MIMETIC AND ANTI-INFLAMMATORY COMPOUND CONTAINING COMPOSITIONS, METHODS OF PREPARATION AND USES THEREOF” (priority 2019, published 2022).
Like-named read-outs stand apart in the source and are kept apart here.

Columns and labels:
Format in all cases: cell-based
TRPM8 = assay: Gene expression custom microarray, human skin fibroblasts (Example 1): TRPM8; settings: 24 hr; for fold induction at 10 µM: Skin fibroblast, read-out: TRPM8↑ gene expression, fold increase or decrease vs untreated cells
From the text: (§1) Cell cultures: A human skin fibroblast cell culture (or cultures) was obtained through the Coriell Cell Repository from the National Institute on Aging Cell Repository (Camden, N.J.), or Promocell GmbH (Heidelberg, Germany). The initial culture was selected from the following cell lines: AG13066, AG11557, AG11796 or GM03651E. The cell lines were derived from donors as follows:
(§2) Experimental phase: When the appropriate quantity of cells had been grown, they were detached as described above, but at the final step were seeded into each well of one or more 6 well dishes. Each well received 2 ml of the cell suspension so they were seeded equally. The dishes were returned to the incubator until 85-95% confluency was reached.
(§3) It is at this stage that all wells were rinsed in PBS after aspirating the growth media. The compound(s) to be tested were previously mixed into a suitable solvent (e.g., DMSO or ethanol) that can be diluted to the desired concentration of test compound (10 μl) in the culture wells without exceeding maximum solvent concentrations and adversely effecting cell viability, and mixed with basal media. NOTE: Standard maximum levels of solvent are 0.1% for DMSO and 0.5% for ETOH. The concentration of each test compound is found in Tables 1 & 2.
(§4) Every 2 wells on the 6 well plate served as a biological replicate for the purposes of RNA isolation and genetic expression evaluations making each 6 well dish an n=3 for the test compound(s) contained in the media. Negative control plates (no test compound(s) and only basal media) were also generated. The plates were returned to the incubator for 24 hrs.
(§5) At the end of the 24 hr time period, the plates were removed from the incubator, the test media aspirated, and the cells rinsed with PBS. RNA isolation is performed using the BioRad Aurum Total RNA Mini Kit (Hercules, Calif.) per manufacturer's protocol; which is described, in brief, below: • Add 350 μl of lysis buffer to each well. Pipet multiple times to ensure thorough lysis. Add lysed cells to the collection tube. • Add 350 μl of 70% ETOH to the collection tube and mix thoroughly. • Pipet the generated lysate onto the spin column placed in a new 2 ml tube. Centrifuge for 30 sec between 8,000 and 10,000 g. • Place the spin column containing the now bound RNA, in a new 2 ml tube. Add 700 μl of low stringency wash solution to the spin column. Centrifuge for 30 sec between 8,000 and 10,000 g. Discard the flow through and replace spin column. • Add 80 μl of DNase I dilution to the spin column and incubate at room temperature for 15 minutes. • Add 700 μl of high stringency wash solution to the column and centrifuge for 30 sec between 8,000 and 10,000 g. Discard flow through. • Add 700 μl of low stringency wash solution to the column and centrifuge for 60 sec between 8,000 and 10,000 g. Discard flow through. • Centrifuge for 2 minutes to remove residual wash solution. • Transfer spin column to new 1.5 ml collection tube and add 80 μl of elution solution to the column. Allow 1 minute for saturation of the membrane and then centrifuge for 2 minutes to complete the RNA elution. • Quantify the quantity of RNA and store at −20 C° until use (no more than 1 month)
(§6) The genes tested were: • Cannabinoid receptor 1 (CB1(CNR1)) • Cannabinoid receptor 2 (CB2 (CNR2)) • Fatty acid amide hydrolase (FAAH) • Monoacylglycerol lipase (MGLL, i.e., MAGL) • Peroxisome proliferator-activated receptor gamma (PPARG) • Nuclear factor kappa-light-chain-enhancer of activated B cells (NFκβ) • Interleukin 1 Alpha (IL1alpha) • Cyclooxygenase 1 (PTGS1, i.e., COX1) • Transient receptor potential cation channel subfamily A member 1 (TRPA1) • Transient receptor potential cation channel subfamily V member 1 (TRPV1) • Transient receptor potential cation channel subfamily M member 8 (TRPM8) • Hemoglobin Subunit Beta (HBB) REFERENCE GENE • Ribosomal Protein L13a (RPL13A) REFERENCE GENE […]

CNR2 = assay: Gene expression custom microarray, human skin fibroblasts (Example 1): CNR2; settings: for fold induction at 10 µM: Skin fibroblast, read-out: CNR2↑ gene expression, fold increase or decrease vs untreated cells
From the text: as §1, §2, §3, §4, §5, §6

TRPA1 = assay: Gene expression custom microarray, human skin fibroblasts (Example 1): TRPA1; settings: for fold induction at 10 µM: Skin fibroblast, read-out: TRPA1↑ gene expression, fold increase or decrease vs untreated cells
From the text: as §1, §2, §3, §4, §5, §6

[1] = human skin fibroblasts, 10 uM, 24 hr

Row | SMILES | fold induction at 10 µM (TRPM8) | fold induction at 10 µM (CNR2; Homo sapiens, 24 h) | fold induction at 10 µM (TRPA1; Homo sapiens, 24 h) | TRPM8↑ gene expression, fold increase or decrease vs untreated cells (TRPM8; 10 uM) [fold] | CNR2↑ gene expression, fold increase or decrease vs untreated cells (CNR2; [1]) [fold] | TRPA1↑ gene expression, fold increase or decrease vs untreated cells (TRPA1; [1]) [fold] | fold induction at 10 µM (CNR2; [1]) | fold induction at 10 µM (TRPA1; [1])
1 | C=C(C)[C@@H]1CCC(C)=C[C@H]1c1c(O)cc(CCCCC)cc1O [CBD, cannabidiol, reference compound] | 6.1 | 1.7 | 2.7 | – | – | – | – | –
2 | CCCCCCCCCCCCCCCC(=O)NCCO [N-palmitoylethanolamide] | – | – | – | 5.1 | 3.9 | 8.2 | – | –
3 | CC(C)[C@]12O[C@H]1[C@@H]1O[C@]13[C@]1(O[C@H]1C[C@H]1C4=C(CC[C@@]13C)C(=O)OC4)[C@@H]2O [Triptolide] | 47.6 | – | – | – | – | – | 10.1 | 26.1
